# Columns and labels:
# Experiment in all cases: KINOMEscan competition binding
# Conditions in all cases: compound 10.0 µM
# [1] = tested on: EGFR (human), P00533 [752-759 del]
# STK4 (human) = STK4 (human) (UniProt Q13043)
# INSRR (human) = INSRR (human) (UniProt P14616)
# [2] = biological target: JAK1 JH1 catalytic (human) (UniProt P23458)
# MKNK1 (human) = MKNK1 (human) (UniProt Q9BUB5)
# MAPK1 (human) = MAPK1 (human) (UniProt P28482)
# CHEK2 (human) = CHEK2 (human) (UniProt O96017)
# PRKACA (human) = PRKACA (human) (UniProt P17612)
# NEK9 (human) = NEK9 (human) (UniProt Q8TD19)
# MAPK9 (human) = MAPK9 (human) (UniProt P45984)
# MAST1 (human) = MAST1 (human) (UniProt Q9Y2H9)
# DSTYK (human) = DSTYK (human) (UniProt Q6XUX3)
# NEK3 (human) = NEK3 (human) (UniProt P51956)
# MAP3K15 (human) = MAP3K15 (human) (UniProt Q6ZN16)
# KIT (human) = KIT (human) (UniProt P10721)
# MAP2K6 (human) = MAP2K6 (human) (UniProt P52564)
# CDC2L2 (human) = CDC2L2 (human) (UniProt Q9UQ88)
# Sequence of CDC2L2 (human) (Q9UQ88 whole entry, looked up): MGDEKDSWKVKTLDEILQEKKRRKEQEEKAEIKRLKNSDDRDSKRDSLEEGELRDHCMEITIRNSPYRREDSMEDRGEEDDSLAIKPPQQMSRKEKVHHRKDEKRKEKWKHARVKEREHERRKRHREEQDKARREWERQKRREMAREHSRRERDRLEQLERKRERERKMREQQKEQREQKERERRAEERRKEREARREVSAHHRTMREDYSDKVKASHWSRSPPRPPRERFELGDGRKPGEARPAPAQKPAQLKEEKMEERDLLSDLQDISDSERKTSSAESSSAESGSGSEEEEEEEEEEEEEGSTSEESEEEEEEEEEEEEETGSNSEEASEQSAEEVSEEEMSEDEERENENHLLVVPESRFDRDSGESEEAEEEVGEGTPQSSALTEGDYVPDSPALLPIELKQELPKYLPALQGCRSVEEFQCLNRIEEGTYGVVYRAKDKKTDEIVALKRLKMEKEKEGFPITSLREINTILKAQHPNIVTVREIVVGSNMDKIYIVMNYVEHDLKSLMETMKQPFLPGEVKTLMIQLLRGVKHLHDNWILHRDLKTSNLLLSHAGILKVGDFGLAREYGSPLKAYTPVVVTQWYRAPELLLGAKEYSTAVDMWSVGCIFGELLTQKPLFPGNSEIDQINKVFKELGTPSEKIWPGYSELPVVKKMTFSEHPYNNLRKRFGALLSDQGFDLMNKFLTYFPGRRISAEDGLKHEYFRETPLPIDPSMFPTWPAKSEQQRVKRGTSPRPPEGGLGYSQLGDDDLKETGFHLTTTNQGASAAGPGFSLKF
# MYLK3 (human) = MYLK3 (human) (UniProt Q32MK0)
# Sequence of MYLK3 (human) (Q32MK0 whole entry, looked up): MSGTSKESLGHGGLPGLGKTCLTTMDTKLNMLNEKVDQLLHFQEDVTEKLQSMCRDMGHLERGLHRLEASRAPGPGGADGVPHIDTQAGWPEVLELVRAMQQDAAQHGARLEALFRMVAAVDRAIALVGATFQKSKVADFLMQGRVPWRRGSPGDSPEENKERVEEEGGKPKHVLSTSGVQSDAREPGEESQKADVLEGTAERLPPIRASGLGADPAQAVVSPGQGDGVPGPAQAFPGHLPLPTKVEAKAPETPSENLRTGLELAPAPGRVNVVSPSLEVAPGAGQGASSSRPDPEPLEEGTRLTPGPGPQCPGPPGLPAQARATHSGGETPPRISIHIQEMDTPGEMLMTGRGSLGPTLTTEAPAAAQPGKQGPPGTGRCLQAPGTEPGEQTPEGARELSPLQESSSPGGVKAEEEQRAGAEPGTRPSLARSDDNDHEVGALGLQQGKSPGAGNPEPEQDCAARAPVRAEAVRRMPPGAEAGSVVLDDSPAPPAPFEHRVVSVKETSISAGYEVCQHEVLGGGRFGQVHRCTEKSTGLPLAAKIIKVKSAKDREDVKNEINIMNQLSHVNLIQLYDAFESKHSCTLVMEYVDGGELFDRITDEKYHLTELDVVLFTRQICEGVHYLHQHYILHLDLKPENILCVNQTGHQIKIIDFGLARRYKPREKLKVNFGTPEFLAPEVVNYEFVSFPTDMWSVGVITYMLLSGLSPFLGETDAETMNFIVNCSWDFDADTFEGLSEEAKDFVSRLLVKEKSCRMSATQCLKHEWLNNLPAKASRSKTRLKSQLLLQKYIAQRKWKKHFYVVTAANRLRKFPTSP
# STK32B (human) = STK32B (human) (UniProt Q9NY57)
# LYN (human) = LYN (human) (UniProt P07948)
# FLT4 (human) = FLT4 (human) (UniProt P35916)
# MARK3 (human) = MARK3 (human) (UniProt P27448)
# PKN1 (human) = PKN1 (human) (UniProt Q16512)
# CSNK1A1L (human) = CSNK1A1L (human) (UniProt Q8N752)
# SGK110 (human) = SGK110 (human) (UniProt P0C264)
# RPS6KA4 KD1 (human) = RPS6KA4 KD1 (human) (UniProt O75676)
# [3] = tested on: RET (human), P07949 [V804M]
# ERBB3 (human) = ERBB3 (human) (UniProt P21860)
# DAPK3 (human) = DAPK3 (human) (UniProt O43293)
# Sequence of DAPK3 (human) (O43293 whole entry, looked up): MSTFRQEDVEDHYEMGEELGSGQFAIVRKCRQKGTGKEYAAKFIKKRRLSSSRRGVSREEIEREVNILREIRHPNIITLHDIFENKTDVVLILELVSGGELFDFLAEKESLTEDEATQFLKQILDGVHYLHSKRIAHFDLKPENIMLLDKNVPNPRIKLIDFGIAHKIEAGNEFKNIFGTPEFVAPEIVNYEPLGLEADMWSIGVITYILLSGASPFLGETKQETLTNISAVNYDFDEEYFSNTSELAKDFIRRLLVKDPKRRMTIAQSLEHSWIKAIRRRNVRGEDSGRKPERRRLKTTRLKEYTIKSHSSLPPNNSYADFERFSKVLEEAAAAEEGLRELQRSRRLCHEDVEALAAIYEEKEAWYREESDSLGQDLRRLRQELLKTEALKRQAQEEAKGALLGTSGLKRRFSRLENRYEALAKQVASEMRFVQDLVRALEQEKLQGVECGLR
# RIOK2 (human) = RIOK2 (human) (UniProt Q9BVS4)
# CSNK1D (human) = CSNK1D (human) (UniProt P48730)
# SIK2 (human) = SIK2 (human) (UniProt Q9H0K1)
# Sequence of SIK2 (human) (Q9H0K1 whole entry, looked up): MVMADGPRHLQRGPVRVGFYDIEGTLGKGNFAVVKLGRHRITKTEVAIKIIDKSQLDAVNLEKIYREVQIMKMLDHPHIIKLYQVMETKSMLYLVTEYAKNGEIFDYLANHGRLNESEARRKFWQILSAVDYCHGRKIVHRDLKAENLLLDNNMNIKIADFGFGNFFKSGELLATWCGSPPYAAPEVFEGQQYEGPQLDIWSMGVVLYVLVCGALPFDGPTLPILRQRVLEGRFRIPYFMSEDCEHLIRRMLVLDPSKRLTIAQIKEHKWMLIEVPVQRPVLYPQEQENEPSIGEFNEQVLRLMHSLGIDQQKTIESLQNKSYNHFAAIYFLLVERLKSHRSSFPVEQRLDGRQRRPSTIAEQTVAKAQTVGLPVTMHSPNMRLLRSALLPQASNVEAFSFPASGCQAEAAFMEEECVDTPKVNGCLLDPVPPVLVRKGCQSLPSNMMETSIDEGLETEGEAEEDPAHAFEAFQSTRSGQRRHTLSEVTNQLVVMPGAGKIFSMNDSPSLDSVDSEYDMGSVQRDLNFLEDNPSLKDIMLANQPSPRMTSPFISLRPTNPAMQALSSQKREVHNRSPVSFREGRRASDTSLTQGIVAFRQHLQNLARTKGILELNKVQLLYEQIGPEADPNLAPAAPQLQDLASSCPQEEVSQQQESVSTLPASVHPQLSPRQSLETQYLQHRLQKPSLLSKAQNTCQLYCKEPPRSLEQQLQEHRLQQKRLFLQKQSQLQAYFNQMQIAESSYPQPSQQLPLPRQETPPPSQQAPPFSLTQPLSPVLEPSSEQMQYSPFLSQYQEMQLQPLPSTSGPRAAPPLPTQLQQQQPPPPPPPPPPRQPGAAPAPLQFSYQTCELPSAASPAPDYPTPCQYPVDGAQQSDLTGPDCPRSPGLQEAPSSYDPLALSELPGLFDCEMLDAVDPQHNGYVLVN
# SLK (human) = SLK (human) (UniProt Q9H2G2)
# Sequence of SLK (human) (Q9H2G2 whole entry, looked up): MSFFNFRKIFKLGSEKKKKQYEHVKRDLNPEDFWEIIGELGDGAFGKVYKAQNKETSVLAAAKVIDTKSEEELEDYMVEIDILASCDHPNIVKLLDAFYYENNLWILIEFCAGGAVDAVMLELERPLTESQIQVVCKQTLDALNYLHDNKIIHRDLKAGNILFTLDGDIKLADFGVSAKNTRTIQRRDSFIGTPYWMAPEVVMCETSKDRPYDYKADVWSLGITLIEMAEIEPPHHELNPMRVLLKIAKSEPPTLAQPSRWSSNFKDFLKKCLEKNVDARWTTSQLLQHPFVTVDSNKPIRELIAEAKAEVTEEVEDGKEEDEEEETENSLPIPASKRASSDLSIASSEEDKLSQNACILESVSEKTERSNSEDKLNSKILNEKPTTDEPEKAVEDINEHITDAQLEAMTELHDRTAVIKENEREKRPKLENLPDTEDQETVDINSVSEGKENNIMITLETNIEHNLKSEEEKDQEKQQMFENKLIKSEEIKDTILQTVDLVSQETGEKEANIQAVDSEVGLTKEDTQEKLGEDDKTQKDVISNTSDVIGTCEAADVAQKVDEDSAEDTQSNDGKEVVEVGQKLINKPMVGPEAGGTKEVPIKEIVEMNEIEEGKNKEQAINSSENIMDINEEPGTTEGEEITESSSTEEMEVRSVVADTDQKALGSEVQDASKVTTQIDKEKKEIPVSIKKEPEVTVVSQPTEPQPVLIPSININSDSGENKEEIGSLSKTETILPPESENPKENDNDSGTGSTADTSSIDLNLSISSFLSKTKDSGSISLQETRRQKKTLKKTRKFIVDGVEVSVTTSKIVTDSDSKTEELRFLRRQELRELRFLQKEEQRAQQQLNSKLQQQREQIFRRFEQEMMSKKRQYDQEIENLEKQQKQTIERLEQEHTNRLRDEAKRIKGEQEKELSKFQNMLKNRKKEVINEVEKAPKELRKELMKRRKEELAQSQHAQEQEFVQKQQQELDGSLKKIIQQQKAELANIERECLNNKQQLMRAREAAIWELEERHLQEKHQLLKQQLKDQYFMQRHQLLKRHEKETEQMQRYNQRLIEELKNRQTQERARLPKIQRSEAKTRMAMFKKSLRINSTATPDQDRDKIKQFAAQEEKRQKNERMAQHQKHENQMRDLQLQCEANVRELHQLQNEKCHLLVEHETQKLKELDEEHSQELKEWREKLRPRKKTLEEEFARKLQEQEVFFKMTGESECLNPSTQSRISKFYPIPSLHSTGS
# TXK (human) = TXK (human) (UniProt P42681)
# MAK (human) = MAK (human) (UniProt P20794)
# PRKCI (human) = PRKCI (human) (UniProt P41743)
# MAP3K3 (human) = MAP3K3 (human) (UniProt Q99759)
# ADCK3 (human) = ADCK3 (human) (UniProt Q8NI60)
# MAP3K13 (human) = MAP3K13 (human) (UniProt O43283)
# FES (human) = FES (human) (UniProt P07332)
# PDGFRA (human) = PDGFRA (human) (UniProt P16234)
# Sequence of CHEK2 (human) (O96017 whole entry, looked up): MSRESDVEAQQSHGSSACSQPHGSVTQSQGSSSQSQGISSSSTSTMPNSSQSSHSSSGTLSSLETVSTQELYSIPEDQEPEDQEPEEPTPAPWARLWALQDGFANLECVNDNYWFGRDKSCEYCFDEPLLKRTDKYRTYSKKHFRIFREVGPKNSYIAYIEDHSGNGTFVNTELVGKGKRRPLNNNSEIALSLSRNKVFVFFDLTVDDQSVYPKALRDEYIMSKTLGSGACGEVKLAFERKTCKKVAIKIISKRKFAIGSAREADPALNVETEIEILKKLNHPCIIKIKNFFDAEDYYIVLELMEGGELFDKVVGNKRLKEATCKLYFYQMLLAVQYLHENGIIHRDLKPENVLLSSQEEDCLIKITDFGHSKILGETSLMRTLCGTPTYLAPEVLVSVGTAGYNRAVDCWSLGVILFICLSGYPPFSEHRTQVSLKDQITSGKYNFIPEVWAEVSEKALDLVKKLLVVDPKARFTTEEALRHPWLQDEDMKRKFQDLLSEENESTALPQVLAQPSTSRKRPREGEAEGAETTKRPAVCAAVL
compound,measurement,setting,value
COc1ccc(-c2ccc3c(N4CCOCC4)nc(N4C[C@@H](C)O[C@@H](C)C4)nc3n2)cc1CO,"kinase still bound, per cent of control",[1],100%
same,"kinase still bound, per cent of control",STK4 (human),100%
same,"kinase still bound, per cent of control",INSRR (human),100%
same,"kinase still bound, per cent of control",[2],84%
same,"kinase still bound, per cent of control",MKNK1 (human),36%
same,"kinase still bound, per cent of control",MAPK1 (human),100%
same,"kinase still bound, per cent of control",CHEK2 (human),100%
same,per cent of control,PRKACA (human),100%
same,"kinase still bound, per cent of control",NEK9 (human),89%
same,"kinase still bound, per cent of control",MAPK9 (human),76%
same,"kinase still bound, per cent of control",MAST1 (human),100%
same,"kinase still bound, per cent of control",DSTYK (human),78%
same,"kinase still bound, per cent of control",NEK3 (human),61%
same,"kinase still bound, per cent of control",MAP3K15 (human),97%
same,"kinase still bound, per cent of control",KIT (human),87%
same,"kinase still bound, per cent of control",MAP2K6 (human),83%
same,per cent of control,CDC2L2 (human),100%
same,"kinase still bound, per cent of control",MYLK3 (human),100%
same,"kinase still bound, per cent of control",STK32B (human),100%
same,"kinase still bound, per cent of control",LYN (human),100%
same,"kinase still bound, per cent of control",FLT4 (human),100%
same,"kinase still bound, per cent of control",MARK3 (human),96%
same,"kinase still bound, per cent of control",PKN1 (human),94%
same,"kinase still bound, per cent of control",CSNK1A1L (human),97%
same,"kinase still bound, per cent of control",SGK110 (human),98%
same,"kinase still bound, per cent of control",RPS6KA4 KD1 (human),96%
same,"kinase still bound, per cent of control",[3],94%
same,"kinase still bound, per cent of control",ERBB3 (human),85%
same,"kinase still bound, per cent of control",DAPK3 (human),89%
same,"kinase still bound, per cent of control",RIOK2 (human),60%
same,per cent of control,CSNK1D (human),79%
same,"kinase still bound, per cent of control",SIK2 (human),91%
same,"kinase still bound, per cent of control",SLK (human),98%
same,"kinase still bound, per cent of control",TXK (human),100%
same,"kinase still bound, per cent of control",MAK (human),100%
same,"kinase still bound, per cent of control",PRKCI (human),79%
same,"kinase still bound, per cent of control",MAP3K3 (human),76%
same,"kinase still bound, per cent of control",ADCK3 (human),87%
same,"kinase still bound, per cent of control",MAP3K13 (human),100%
same,"kinase still bound, per cent of control",FES (human),99%
same,"kinase still bound, per cent of control",PDGFRA (human),94%

# From the kinase profiling compilation of Christmann-Franck et al. (2016)
